Data as given in the CheMixHub viscosity set.

Assay: xn = mol fraction of the nth substance listed

Cc1ccccc1C + C1CCCCC1
viscosity [mPa·s], 101 kPa
Conditions	x1 = 0.0998	x1 = 0.2001	x1 = 0.3	x1 = 0.4	x1 = 0.5	x1 = 0.6	x1 = 0.7001	x1 = 0.7999	x1 = 0.9
303.15 K	0.7647	0.7241	0.6977	0.6817	0.6728	0.6706	0.6735	0.681	0.6924
308.15 K	0.7083	0.6736	0.6511	0.6372	0.6306	0.6289	0.6317	0.639	0.65
313.15 K	0.6583	0.6281	0.6097	0.5979	0.592	0.5919	0.5946	0.6015	0.6118
318.15 K	0.6129	0.5876	0.572	0.5615	0.5568	0.5562	0.5614	0.5679	0.5772
323.15 K	0.5722	0.5508	0.5372	0.5284	0.5247	0.5248	0.5293	0.5365	0.5452

Cc1ccccc1C + C1COCCO1
308.15 K, 101 kPa
Conditions	viscosity [mPa·s]
x2 = 0.1	0.676
x2 = 0.2	0.699
x2 = 0.3	0.723
x2 = 0.5	0.774
x2 = 0.6	0.806
x2 = 0.7	0.841
x2 = 0.8	0.879
x2 = 0.9	0.922

COCCOCCO + CC1COC(=O)O1
298.15 K, 101.33 kPa
Conditions	viscosity [mPa·s]
x1 = 0.0342	2.506
x1 = 0.0633	2.515
x1 = 0.0849	2.524
x1 = 0.1101	2.537
x1 = 0.1406	2.548
x1 = 0.1617	2.559
x1 = 0.1739	2.568
x1 = 0.2188	2.601
x1 = 0.2694	2.645
x1 = 0.3234	2.698
x1 = 0.3696	2.751
x1 = 0.3809	2.771
x1 = 0.4421	2.844
x1 = 0.4715	2.886
x1 = 0.5373	2.97
x1 = 0.5688	3.011
x1 = 0.6187	3.063
x1 = 0.6576	3.108
x1 = 0.7503	3.217
x1 = 0.7761	3.248
x1 = 0.7996	3.269
x1 = 0.8142	3.282
x1 = 0.8452	3.313
x1 = 0.9062	3.367
x1 = 0.9414	3.404
x2 = 0.0198	3.432
